Measurements as given in patent US20250296960A1, “PEPTIDE COMPOSITIONS AND METHODS OF USE THEREOF” (priority 2022, published 2025).
Numbered stars: 1 amine (or outer) side, 2 acyl side, 3 side chain; on linkers, the order of the positions; unused ones are H or OH. Square brackets hold non-standard residues; d marks the D form. Side chains are listed from the residue outwards. Ends that are not written are not given here. * marks the point of attachment. C18 = C18 fatty acid (C16-C22 fatty acids conjugated via γGlu/8-amino-3,6-dioxaoctanoic acid spacers); C20 diacid = O=C(O)CCCCCCCCCCCCCCCCCCC(=O)*; γGlu = O=C(O)[C@H](CCC(=O)[*:2])N[*:1]; αMeL = CC(C)C[C@](C)(N)C(=O)O; AEEA = NCCOCCOCC(=O)O; Aib = CC(C)(N)C(=O)O

What was measured:
[1] = Body weight loss in normal C57BL/6 mice, subcutaneous dosing; type: in vivo; settings: for Weight loss (%): normal mice
Experimental: To confirm the therapeutic effect of the peptide in vivo, polypeptides were administered to mice to measure changes in body weight. […] The peptides were delivered at 0.02% polysorbate 80 (PS80) in PBS and dosing volume was 10 mL/kg. Body weight was monitored 6 h, QD.
To confirm the therapeutic effect of the peptide in obesity, diabetes, or NASH, polypeptides were administered to mice to measure changes in food intake, blood glucose and body weight. […] In addition, a NASH animal model was prepared by feeding a high fat, high fructose, high cholesterol diet to normal C57BL/6 mice (approximately 6 weeks old) for approximately 21 weeks, and increasing the body weights of the mice to approximately 50 g on average. Thereafter, polypeptides were administered by subcutaneous injection at dose of 20 nmol/kg once every other day for 2 weeks. Body weight and food intake were measured once every other day given points of time. After 2 weeks of treatment period, mice were sacrificed, then liver weight, hepatic triglyceride, and NASH related biomarkers were measured.
DD01 administered at 40 nmol/kg, s.c. Q2D as positive control was delivered at 0.02% PS80 in PBS and dosing volume was 10 mL/kg. Body weight was monitored QD for 4 days.
The peptides were delivered at 0.02% PS80 in PBS and dosing volume was 10 mL/kg. Food intake, blood glucose, and body weight changes were monitored QD.

human GLP-1R = target: T1, human GLP-1R (Homo sapiens, UniProt P43220); assay: cAMP assay (HitHunter cAMP) in GLP-1R-expressing CHO-K1 cells (GLP-1R+ cells); type: cell-based
T1 construct: host or cells: CHO-K1
T1 sequence (P43220 24-463): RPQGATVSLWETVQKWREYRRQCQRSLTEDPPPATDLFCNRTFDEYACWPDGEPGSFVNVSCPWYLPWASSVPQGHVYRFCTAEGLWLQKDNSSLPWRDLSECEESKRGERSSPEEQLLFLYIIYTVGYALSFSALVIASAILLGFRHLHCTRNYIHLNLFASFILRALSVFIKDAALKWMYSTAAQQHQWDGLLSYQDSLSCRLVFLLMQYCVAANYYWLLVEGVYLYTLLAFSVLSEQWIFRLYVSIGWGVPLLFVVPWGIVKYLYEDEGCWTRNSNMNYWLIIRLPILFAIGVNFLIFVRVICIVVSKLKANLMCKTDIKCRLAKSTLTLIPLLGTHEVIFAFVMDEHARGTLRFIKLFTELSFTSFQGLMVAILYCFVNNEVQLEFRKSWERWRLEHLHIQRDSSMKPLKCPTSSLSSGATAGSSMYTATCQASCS
Experimental: (§1) The cells were seeded in a 96-well plate at 7×10^3 cells/well using cell plate reagent and incubated the cells overnight at 37° C. and 5% CO2. To perform the cAMP detection assay, cell plating reagent were replaced with the cAMP Assay buffer. Each of the wells was then treated with the diluted peptide and incubated for 30 minutes under conditions of a temperature of 37° C. in a CO2 incubator.
(§2) After the incubation, cAMP Antibody reagent and Working cAMP detection solution to all wells. Incubate the plate for 1 hour at Room temperature in the dark. Then, cAMP Solution A was added and incubated for 3 hours at room temperature in the dark. Subsequently, the luminescence was measured using the microplate reader device.

human GCGR = target: T2, human GCGR (Homo sapiens, UniProt P47871); assay: cAMP assay (HitHunter cAMP) in GCGR-expressing CHO-K1 cells (GCGR+ cells); type: cell-based
T2 construct: host or cells: CHO-K1
T2 sequence (P47871 26-477): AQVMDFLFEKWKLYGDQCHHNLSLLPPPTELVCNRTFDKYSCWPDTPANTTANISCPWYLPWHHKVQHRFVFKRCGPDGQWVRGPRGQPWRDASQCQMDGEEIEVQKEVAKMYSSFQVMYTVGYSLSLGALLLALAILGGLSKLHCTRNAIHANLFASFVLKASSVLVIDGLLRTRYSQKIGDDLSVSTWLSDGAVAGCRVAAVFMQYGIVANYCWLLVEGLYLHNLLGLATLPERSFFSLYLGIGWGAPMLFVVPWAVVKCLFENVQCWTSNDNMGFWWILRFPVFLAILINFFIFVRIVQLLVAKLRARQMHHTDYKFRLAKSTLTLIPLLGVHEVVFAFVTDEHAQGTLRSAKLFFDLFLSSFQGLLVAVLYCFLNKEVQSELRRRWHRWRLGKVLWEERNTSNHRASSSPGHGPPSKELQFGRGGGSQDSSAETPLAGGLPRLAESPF
Experimental: as §1, §2

human GIPR = target: T3, human GIPR (Homo sapiens, UniProt P48546); assay: cAMP assay (HitHunter cAMP) in GIPR-expressing CHO-K1 cells (GIPR+ cells); type: cell-based
T3 construct: host or cells: CHO-K1
T3 sequence (P48546 22-466): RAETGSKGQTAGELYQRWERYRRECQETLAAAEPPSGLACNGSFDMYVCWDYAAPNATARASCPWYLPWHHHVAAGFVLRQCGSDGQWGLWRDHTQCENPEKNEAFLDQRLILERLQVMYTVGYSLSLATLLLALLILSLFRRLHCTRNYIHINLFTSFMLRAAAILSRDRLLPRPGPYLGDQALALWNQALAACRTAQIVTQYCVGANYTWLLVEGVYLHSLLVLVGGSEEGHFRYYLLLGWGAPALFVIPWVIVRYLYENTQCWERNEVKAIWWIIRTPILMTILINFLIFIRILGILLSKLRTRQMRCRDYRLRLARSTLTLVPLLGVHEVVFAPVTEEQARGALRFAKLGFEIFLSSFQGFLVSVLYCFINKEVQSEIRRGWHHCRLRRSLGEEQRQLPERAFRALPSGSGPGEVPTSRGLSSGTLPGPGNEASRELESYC
Experimental: as §1, §2

[2] = 20 nmol/kg QD, after 48 or 72 hours
[3] = 20 nmol/kg QD, Weight loss at 48 hr
[4] = Table 13, EC50 of STD peptide over EC50 of peptide
[5] = Table 14, normalised to activity at GLP-1R

In the case of “Y-Aib-QGTFTSDYSI-αMeL-LDKK((2-[2-(2-amino-ethoxy)-ethoxy]-acetyl)-(γGlu)-CO-(CH2)18-CO2H)AQ-Aib-AFIEYLLE-Aib-GPSS-Aib-APPPS-NH2 (Y[Aib]QGTFTSDYSI[αMeL]LDKK([AEEA-γGlu-C20 diacid])AQ[Aib]AFIEYLLE[Aib]GPSS[Aib]APPPS-NH2; N-terminus assumed; SMILES CC[C@H](C)[C@H](NC(=O)[C@H](Cc1ccccc1)NC(=O)[C@H](C)NC(=O)C(C)(C)NC(=O)[C@H](CCC(N)=O)NC(=O)[C@H](C)NC(=O)[C@H](CCCCNC(=O)COCCOCCNC(=O)CC[C@H](NC(=O)CCCCCCCCCCCCCCCCCCC(=O)O)C(=O)O)NC(=O)[C@H](CCCCN)NC(=O)[C@H](CC(=O)O)NC(=O)[C@H](CC(C)C)NC(=O)[C@](C)(CC(C)C)NC(=O)[C@@H](NC(=O)[C@H](CO)NC(=O)[C@H](Cc1ccc(O)cc1)NC(=O)[C@H](CC(=O)O)NC(=O)[C@H](CO)NC(=O)[C@@H](NC(=O)[C@H](Cc1ccccc1)NC(=O)[C@@H](NC(=O)CNC(=O)[C@H](CCC(N)=O)NC(=O)C(C)(C)NC(=O)[C@@H](N)Cc1ccc(O)cc1)[C@@H](C)O)[C@@H](C)O)[C@@H](C)CC)C(=O)N[C@@H](CCC(=O)O)C(=O)N[C@@H](Cc1ccc(O)cc1)C(=O)N[C@@H](CC(C)C)C(=O)N[C@@H](CC(C)C)C(=O)N[C@@H](CCC(=O)O)C(=O)NC(C)(C)C(=O)NCC(=O)N1CCC[C@H]1C(=O)N[C@@H](CO)C(=O)N[C@@H](CO)C(=O)NC(C)(C)C(=O)N[C@@H](C)C(=O)N1CCC[C@H]1C(=O)N1CCC[C@H]1C(=O)N1CCC[C@H]1C(=O)N[C@@H](CO)C(N)=O) [EL.EX.14, reference compound]”, the “Weight loss (%)” value ([1]; 10 nmol/kg QD, after 48 or 72 hours) is reported as 11.0 ± 2.4%.

For “5-3A: Peptide No. 5-3 lipidated via conjugation to C-terminal cysteine (type A) (Y[Aib]QGTFTSDYSKLLDYMMQRDFVQWLLEGGPSSGAPPPSC([AEEA-AEEA-γGlu-C18])-NH2)”, the “body weight loss effect, in words” value ([1]; Example 5, 20 nmol/kg s.c. QD, 4 days) was “least effect” and the “Weight loss (%)” value [1, 2] was 5.5 ± 1.6%.

In the case of “HAibQGT FTSDY SK*YLD YMMQRDFVQWLIEGGPSSGAPPPS (H[Aib]QGTFTSDYSK([AEEA-AEEA-γGlu-C18])YLDYMMQRDFVQWLIEGGPSSGAPPPS-NH2) [5-4D, K* = lysine lipidated with 2OEG-γGlu-C18]”, the “Weight loss (%)” value [1, 3] is reported as 7.2 ± 0.9%.

In the case of “12-3A: Peptide No. 12-3 lipidated via conjugation to C-terminal cysteine (type A) (Y[Aib]QGTFTSDWSKYLDQQMQQDFVDWLLNGGPSSGAPPPSC([AEEA-AEEA-γGlu-C18])-NH2)”, the “Weight loss (%)” value [1, 2] is reported as 0.2 ± 1.8%.

For “YAibQGT FTSDY SKYLD YK*MAR DFVQW LIEGG PSSGA PPPS (Y[Aib]QGTFTSDYSKYLDYK([AEEA-AEEA-γGlu-C18])MARDFVQWLIEGGPSSGAPPPS-NH2) [5-1F, K* = lysine lipidated with 2OEG-γGlu-C18]”, the “Weight loss (%)” value [1, 3] was 21.9 ± 2.5%.

For “12-2A: Peptide No. 12-2 lipidated via conjugation to C-terminal cysteine (type A) (Y[Aib]QGTFTSDWSKYLDQQMQQDFVDWLINGGPSSGAPPPSC([AEEA-AEEA-γGlu-C18])-NH2)”, the “Weight loss (%)” value [1, 2] was 2.0 ± 0.9%.

In the case of “HAibQGT FTSDY SK*LLD YMMQRDFVQWLLEGGPSSGAPPPS (H[Aib]QGTFTSDYSK([AEEA-AEEA-γGlu-C18])LLDYMMQRDFVQWLLEGGPSSGAPPPS-NH2) [5-5D, K* = lysine lipidated with 2OEG-γGlu-C18]”, the “Weight loss (%)” value [1, 3] is reported as 10.3 ± 1.3%.

For “12-4A: Peptide No. 12-4 lipidated via conjugation to C-terminal cysteine (type A) (H[Aib]QGTFTSDWSKYLDQQMQQDFVDWLINGGPSSGAPPPSC([AEEA-AEEA-γGlu-C18])-NH2)”, the “Weight loss (%)” value [1, 2] was 4.3 ± 0.9%.

For “12-5A: Peptide No. 12-5 lipidated via conjugation to C-terminal cysteine (type A) (H[Aib]QGTFTSDWSKYLDQQMQQDFVDWLLNGGPSSGAPPPSC([AEEA-AEEA-γGlu-C18])-NH2)”, the “Weight loss (%)” value [1, 2] was 5.4 ± 0.9%.

For CC[C@H](C)[C@H](NC(=O)[C@H](CC(C)C)NC(=O)[C@H](Cc1c[nH]c2ccccc12)NC(=O)[C@H](CCC(N)=O)NC(=O)[C@@H](NC(=O)[C@H](Cc1ccccc1)NC(=O)[C@H](CC(=O)O)NC(=O)[C@H](CCCNC(=N)N)NC(=O)[C@H](C)NC(=O)[C@H](CCSC)NC(=O)[C@H](CCSC)NC(=O)[C@H](Cc1ccc(O)cc1)NC(=O)[C@H](CC(=O)O)NC(=O)[C@H](CC(C)C)NC(=O)[C@H](Cc1ccc(O)cc1)NC(=O)[C@H](CCCCNC(=O)CCCC[C@@H]1SC[C@@H]2NC(=O)N[C@@H]21)NC(=O)[C@H](CO)NC(=O)[C@H](Cc1ccc(O)cc1)NC(=O)[C@H](CC(=O)O)NC(=O)[C@H](CO)NC(=O)[C@@H](NC(=O)[C@H](Cc1ccccc1)NC(=O)[C@@H](NC(=O)CNC(=O)[C@H](CCC(N)=O)NC(=O)C(C)(C)NC(=O)[C@@H](N)Cc1c[nH]cn1)[C@@H](C)O)[C@@H](C)O)C(C)C)C(=O)N[C@@H](CCC(=O)O)C(=O)NCC(=O)NCC(=O)N1CCC[C@H]1C(=O)N[C@@H](CO)C(=O)N[C@@H](CO)C(=O)NCC(=O)N[C@@H](C)C(=O)N1CCC[C@H]1C(=O)N1CCC[C@H]1C(=O)N1CCC[C@H]1C(=O)N[C@@H](CO)C(=O)N[C@@H](CSC1CC(=O)N(CCNC(=O)COCCOCCNC(=O)COCCOCCNC(=O)CC[C@H](NC(=O)CCCCCCCCCCCCCCCCC(=O)O)C(=O)O)C1=O)C(N)=O (stereo partly shown) [5B, HAibQGT FTSDY SB*YLD YMMARDFVQWLIEGGPSSGAPPPSC*], the “Activity relative to STD peptide (%), GLP-1” value (human GLP-1R; [4]) was 87%, the “Activity relative to GLP-1 (%), GLP-1” value (human GLP-1R; [5]) was 100% and the “Activity relative to STD peptide (%), Glucagon” value (human GCGR; [4]) was 5%. For the same molecule, the “Activity relative to GLP-1 (%), Glucagon” value (human GCGR; [5]) was 6%, the “Activity relative to STD peptide (%), GIP” value (human GIPR; [4]) was 2% and the “Activity relative to GLP-1 (%), GIP” value (human GIPR; [5]) was 2%.

In the case of “12-1A: Peptide No. 12-1 lipidated via conjugation to C-terminal cysteine (type A) (Y[Aib]QGTFTSDWSKYLDQQMAQDFVDWLINGGPSSGAPPPSC([AEEA-AEEA-γGlu-C18])-NH2)”, the “Weight loss (%)” value [1, 2] is reported as 9.0 ± 2.2%.

With “5-4A: Peptide No. 5-4 lipidated via conjugation to C-terminal cysteine (type A) (H[Aib]QGTFTSDYSKYLDYMMQRDFVQWLIEGGPSSGAPPPSC([AEEA-AEEA-γGlu-C18])-NH2)” the “Weight loss (%)” value [1, 2] was 8.3 ± 0.9%.

With “12-7A: Peptide No. 12-7 lipidated via conjugation to C-terminal cysteine (type A) (H[Aib]EGTFTSDWSKYLDQQMAQDFVDWLINGGPSSGAPPPSC([AEEA-AEEA-γGlu-C18])-NH2)” the “Weight loss (%)” value [1, 2] was 9.5 ± 3.0%.
